Assay [1] deals with T1, VIM-2 (Escherichia coli, UniProt Q5U7L7).
T1 construct: made in house; host or cells: E. coli BL21(DE3)
The assay is described as follows: β-Lactamase enzyme inhibition assay, VIM-2 (nitrocefin substrate). The assay is classed as biochemical. As to conditions: nitrocefin substrate 100 μM, 15 min preincubation at 37° C.; read-out: IC50, Class B VIM-2. In short, it runs like this:
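Purified VIM-2 (Q sepharose anion exchange, HEPES pH 7.5) preincubated with inhibitor 15 min at 37° C. Nitrocefin added at 100 μM final; absorbance at 486 nm monitored 10 min. IC50 from inhibition of initial hydrolysis rate versus inhibitor-free controls.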

The test system of assay [2] is E. coli ESBL4 expressing CTX-M-15. The assay is described as follows: Broth microdilution MIC assay, partner ceftazidime.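 Further: ceftazidime held fixed at 4 µg/mL.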 In kind it is cell-based. Conditions: Escherichia coli, read-out: MIC of Exemplary Compounds in presence of fixed β-lactams, Fixed CAZ, E. coli ESBL4 CTX-M-15. On the technique in general: In broth dilution the organism is exposed to a series of concentrations in liquid medium.

The test system of assay [3] is E. cloacae 144200 expressing Class C P99 AmpC. Kind of assay: Broth microdilution MIC assay, partner ceftazidime.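 Further: ceftazidime held fixed at 4 µg/mL.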 As to conditions: Enterobacter cloacae, read-out: MIC of Exemplary Compounds in presence of fixed β-lactams, Fixed CAZ, E. cl. 144200 p99 AmpC. In kind it is cell-based.
In assay [4] the test system is K. pneumoniae 156319 expressing KPC-3. The assay is described as follows: Broth microdilution MIC assay, partner meropenem. The assay is classed as cell-based. Conditions: Klebsiella pneumoniae, read-out: MIC of Exemplary Compounds in presence of fixed β-lactams, Fixed Mero, K.P. 156319 KPC-3.
For assay [5], the system named is P. aeruginosa Ps296 expressing VIM-2. Kind of assay: Broth microdilution MIC assay, partner meropenem. The assay is classed as cell-based. Conditions: Pseudomonas aeruginosa, read-out: MIC of Exemplary Compounds in presence of fixed β-lactams, Fixed Mero, P. aerug. Ps296 VIM-2.
Assay [6] deals with K. pneumoniae A-1797 expressing KPC-2 and VIM-4. The assay is described as follows: Broth microdilution MIC assay, partner meropenem. As to conditions: Klebsiella pneumoniae, read-out: MIC of Exemplary Compounds in presence of fixed β-lactams, Fixed Mero, K.P. A-1797 KPC-2 VIM-4. The assay is classed as cell-based.
Assay [7] concerns S. aureus MSSA-7 producing penicillinase PC-1. Kind of assay: Broth microdilution MIC assay, partner piperacillin. In kind it is cell-based. As to conditions: Staphylococcus aureus, fixed piperacillin 4 μg/mL, read-out: MIC of Exemplary Compounds in presence of fixed β-lactams, Fixed Pip, S. aureus MSSA-7 PC-1.

For orientation: IC50 means the concentration at which inhibition is half-maximal. For orientation: MIC means the lowest concentration that inhibits growth of the organism. Regarding `O=C(Cc1ccc(O)c(O)c1)N[C@H]1Cc2cccc(C(=O)O)c2OB1O` [Example 38, (R)-3-(2-(3,4-dihydroxyphenyl)acetamido)-2-hydroxy-3,4-dihydro-2H-benzo[e][1,2]oxaborinine-8-carboxylic acid], the IC50 in assay [1] was 100 to 1000 nM. Also, the MIC in assay [2] was < 4 µg/mL; in assay [3], < 4 µg/mL; in assay [4], < 4 µg/mL; in assay [5], 8 to 32 µg/mL; in assay [6], 8 to 32 µg/mL; in assay [7], < 4 µg/mL.
As to `O=C(N[C@H]1Cc2cccc(C(=O)O)c2OB1O)c1ccc2cc[nH]c2c1` [Example 30, (R)-2-hydroxy-3-(1H-indole-6-carboxamido)-3,4-dihydro-2H-benzo[e][1,2]oxaborinine-8-carboxylic acid], in assay [1], the IC50 lay in the range of 100 to 1000 nM. For the same molecule, the MIC is < 4 µg/mL in assay [2]; < 4 µg/mL in assay [3]; < 4 µg/mL in assay [4]; < 4 µg/mL in assay [5]; 8 to 32 µg/mL in assay [6]; < 4 µg/mL in assay [7].
With `O=C(N[C@H]1Cc2cccc(C(=O)O)c2OB1O)c1cnc2c(c1)CNC2` [Example 50, (3R)-3-(6,7-dihydro-5H-pyrrolo[3,4-b]pyridine-3-carbonylamino)-2-hydroxy-3,4-dihydro-1,2-benzoxaborinine-8-carboxylic acid], in assay [1], the 50% inhibitory concentration (IC50) is 100 to 1000 nM. The MIC in assay [2] was < 4 µg/mL; in assay [3] it was < 4 µg/mL; in assay [4], < 4 µg/mL; in assay [5], < 4 µg/mL; in assay [6], > 32 µg/mL; in assay [7] it was < 4 µg/mL.
On to `CN(C)Cc1ccc(C(=O)N[C@H]2Cc3cccc(C(=O)O)c3OB2O)cc1NC(=O)[C@@H](N)CN` [Example 21, (R)-3-(3-((S)-2,3-diaminopropanamido)-4-((dimethylamino)methyl)benzamido)-2-hydroxy-3,4-dihydro-2H-benzo[e][1,2]oxaborinine-8-carboxylic acid], for which, in assay [1], the 50% inhibitory concentration (IC50) was < 100 nM. Besides, the MIC in assay [2] is < 4 µg/mL; in assay [3], < 4 µg/mL; in assay [4], 8 to 32 µg/mL; in assay [5] it was > 32 µg/mL; in assay [6], 8 to 32 µg/mL; in assay [7], 8 to 32 µg/mL.
Turning to `O=C1Cc2cc(C(=O)N[C@H]3Cc4cccc(C(=O)O)c4OB3O)ccc2N1` [Example 33, (R)-2-Hydroxy-3-[(2-oxo-2,3-dihydro-1H-indole-5-carbonyl)-amino]-3,4-dihydro-2H-benzo[e][1,2]oxaborinine-8-carboxylic acid], in assay [1], the IC50 lay in the range of 100 to 1000 nM. Further, the MIC in assay [2] is < 4 µg/mL; in assay [3], < 4 µg/mL; in assay [4], < 4 µg/mL; in assay [5], < 4 µg/mL; in assay [6], 8 to 32 µg/mL; in assay [7] it was < 4 µg/mL.
For the molecule `NCCN1Cc2ccc(C(=O)N[C@H]3Cc4cccc(C(=O)O)c4OB3O)cc2C1` [Example 11, (R)-3-(2-(2-aminoethyl)isoindoline-5-carboxamido)-2-hydroxy-3,4-dihydro-2H-benzo[e][1,2]oxaborinine-8-carboxylic acid], the IC50 in assay [1] was in the range of 100 to 1000 nM. In addition, the MIC in assay [2] is < 4 µg/mL; in assay [3] it was < 4 µg/mL; in assay [4], < 4 µg/mL; in assay [5] it was > 32 µg/mL; in assay [6], < 4 µg/mL; in assay [7], < 4 µg/mL.
Turning to `N=C(N)N1Cc2ccc(C(=O)N[C@H]3Cc4cccc(C(=O)O)c4OB3O)cc2C1` [Example 16, (R)-3-(2-carbamimidoylisoindoline-5-carboxamido)-2-hydroxy-3,4-dihydro-2H-benzo[e][1,2]oxaborinine-8-carboxylic acid], in assay [1], the IC50 was < 100 nM. The minimum inhibitory concentration (MIC) in assay [2], in assay [3], in assay [4], in assay [5], in assay [6] and in assay [7] was < 4 µg/mL in each case.
For the molecule `NCCNC(=O)c1ccccc1C(=O)N[C@H]1Cc2cccc(C(=O)O)c2OB1O` [Example 54, (R)-3-(2-(2-aminoethylcarbamoyl)benzamido)-2-hydroxy-3,4-dihydro-2H-benzo[e][1,2]oxaborinine-8-carboxylic acid], the concentration for half-maximal inhibition (IC50) in assay [1] was 1000 to 10000 nM. Also, the MIC in assay [2] is < 4 µg/mL; in assay [3], < 4 µg/mL; in assay [4], 8 to 32 µg/mL; in assay [5], < 4 µg/mL; in assay [6], > 32 µg/mL; in assay [7] it was > 32 µg/mL.
Turning to `O=C(N[C@H]1Cc2cccc(C(=O)O)c2OB1O)c1ccc(-c2ncc[nH]2)cc1` [Example 47, (R)-2-Hydroxy-3-[4-(1H-imidazol-2-yl)-benzoylamino]-3,4-dihydro-2H-benzo[e][1,2]oxaborinine-8-carboxylic acid], in assay [1], the half-maximal inhibitory concentration (IC50) lay within 100 to 1000 nM. Besides, the MIC is < 4 µg/mL in assay [2]; < 4 µg/mL in assay [3]; < 4 µg/mL in assay [4]; 8 to 32 µg/mL in assay [5]; > 32 µg/mL in assay [6]; < 4 µg/mL in assay [7].
As for `CN1CCc2c(C(=O)N[C@H]3Cc4cccc(C(=O)O)c4OB3O)csc2C1` [Example 6, (R)-2-hydroxy-3-(6-methyl-4,5,6,7-tetrahydrothieno[2,3-c]pyridine-3-carboxamido)-3,4-dihydro-2H-benzo[e][1,2]oxaborinine-8-carboxylic acid], in assay [1], the IC50 is 1000 to 10000 nM. Besides, the MIC in assay [2] is < 4 µg/mL; in assay [3], < 4 µg/mL; in assay [4] it was < 4 µg/mL; in assay [5], > 32 µg/mL; in assay [6], 8 to 32 µg/mL; in assay [7], < 4 µg/mL.
Consider `O=C(N[C@H]1Cc2cccc(C(=O)O)c2OB1O)c1ccc2nc[nH]c2c1` [Example 34, (R)-3-[(3H-Benzoimidazole-5-carbonyl)-amino]-2-hydroxy-3,4-dihydro-2H-benzo[e][1,2]oxaborinine-8-carboxylic acid], for which, in assay [1], the half-maximal inhibitory concentration (IC50) fell in the range of 100 to 1000 nM. Moreover, the MIC is < 4 µg/mL in assay [2]; < 4 µg/mL in assay [3]; < 4 µg/mL in assay [4]; < 4 µg/mL in assay [5]; 8 to 32 µg/mL in assay [6]; < 4 µg/mL in assay [7].
As to `O=C(Cc1ccc2c(c1)CNCC2)N[C@H]1Cc2cccc(C(=O)O)c2OB1O` [Example 51, (R)-2-Hydroxy-3-(2-1,2,3,4-tetrahydro-isoquinolin-7-yl-acetylamino)-3,4-dihydro-2H-benzo[e][1,2]oxaborinine-8-carboxylic acid], the IC50 in assay [1] was < 100 nM. Further, the MIC in assay [2], in assay [3], in assay [4], in assay [5], in assay [6] and in assay [7] was < 4 µg/mL throughout.
Regarding `NCc1cnc(C(=O)N[C@H]2Cc3cccc(C(=O)O)c3OB2O)cc1CN` [Example 63], the IC50 in assay [1] was < 100 nM. The MIC in assay [2], in assay [3], in assay [4], in assay [5], in assay [6] and in assay [7] was < 4 µg/mL each time.
Take `CC(C)NCc1ccc(C(=O)N[C@H]2Cc3cccc(C(=O)O)c3OB2O)cc1CNC(C)C` [Example 56, (R)-3-(3,4-bis((isopropylamino)methyl)benzamido)-2-hydroxy-3,4-dihydro-2H-benzo[e][1,2]oxaborinine-8-carboxylic acid]: the half-maximal inhibitory concentration (IC50) in assay [1] was in the range of 100 to 1000 nM. In addition, the minimal inhibitory concentration (MIC) in assay [2], in assay [3], in assay [4], in assay [5], in assay [6] and in assay [7] was < 4 µg/mL throughout.
